In patent US20260070945A1, “MACROCYCLIC IMMUNOMODULATORS” (Bristol-Myers Squibb Company, priority 2022, published 2026):
pIC50: −log10 of the molar value. *1 amine or outer side, *2 acyl side, *3 side chain or, on linkers, in order; H or OH if unused. Where a SMILES comes first, the peptide text is derived from it. Bridges are numbered along the chain shown (N, C = ends). [ ]: non-standard residue; d: D form. The star is where a group is joined. ξ: configuration not given here. Phe(3-CF3) = N[C@@H](Cc1cccc(C(F)(F)F)c1)C(=O)O; Phe(4-CF3) = N[C@@H](Cc1ccc(C(F)(F)F)cc1)C(=O)O; Phe(4-COOH) = N[C@@H](Cc1ccc(C(=O)O)cc1)C(=O)O; Phe(4-CH2NH2) = NCc1ccc(C[C@H](N)C(=O)O)cc1; Trp(1-Me) = Cn1cc(C[C@H](N)C(=O)O)c2ccccc21; Bip = N[C@@H](Cc1ccc(-c2ccccc2)cc1)C(=O)O; Phe(3-Me) = Cc1cccc(C[C@H](N)C(=O)O)c1; γGlu = O=C(O)[C@H](CCC(=O)[*:2])N[*:1]; NH(CH2)8CO = O=C(CCCCCCCCN[*:1])[*:2]; NH(CH2)12COOH = O=C(O)CCCCCCCCCCCCN*; Val(3-OH) = CC(C)(O)[C@H](N)C(=O)O; 4Pal = N[C@@H](Cc1ccncc1)C(=O)O; Aad = N[C@@H](CCCC(=O)O)C(=O)O; Cha = N[C@@H](CC1CCCCC1)C(=O)O; Cit = NC(=O)NCCC[C@H](N)C(=O)O; Ile(3ξ) = CCC(C)[C@H](N)C(=O)O; Thr(3ξ) = CC(O)[C@H](N)C(=O)O; 12Ado = NCCCCCCCCCCCC(=O)O; Carboxymethyl = O=C(O)C*; NMeA = CN[C@@H](C)C(=O)O; Orn = NCCC[C@H](N)C(=O)O; Aun = NCCCCCCCCCCC(=O)O; Dab = NCC[C@H](N)C(=O)O; AEEA = NCCOCCOCC(=O)O

These compounds were tested against T1, PD-1/PD-L1 interaction (PE-labeled human PD-L1-Ig binding to Jurkat cell line over-expressing human PD-1) (Homo sapiens, UniProt Q15116) (assay: Jurkat-PD-1 Cell Binding High-Content Screening Assay (CBA)). Conditions: Jurkat-hPD-1 cells, PE-labeled PD-L1-Ig 20 nM final; read-out: Jurkat HPD1 PDL1 IC50.
T1 construct: expressed in transfected cells; host or cells: Jurkat
T1 sequence (Q15116 25-288): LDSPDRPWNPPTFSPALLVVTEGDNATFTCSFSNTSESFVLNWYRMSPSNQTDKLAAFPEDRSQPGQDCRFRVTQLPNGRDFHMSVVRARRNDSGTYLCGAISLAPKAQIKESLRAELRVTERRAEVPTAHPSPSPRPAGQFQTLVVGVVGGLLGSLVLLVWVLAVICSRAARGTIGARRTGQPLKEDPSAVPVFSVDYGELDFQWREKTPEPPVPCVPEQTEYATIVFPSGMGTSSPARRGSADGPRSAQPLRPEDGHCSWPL
Description: Example 2: Jurkat-PD-1 Cell Binding High-Content Screening Assay (CBA)
Phycoerythrin (PE) was covalently linked to the Ig epitope tag of human PD-L1-Ig and fluorescently-labeled PD-L1-Ig was used for binding studies with a Jurkat cell line over-expressing human PD-1 (Jurkat-PD-1). Briefly, 8×10^3 Jurkat-hPD-1 cells were seeded into 384 well plates in 20 μl of DMEM supplemented with 10% fetal calf serum. 100 nl of compound was added to cells followed by incubation at 37° C. for 2 hours. Then, 5 μl of PE-labeled PD-L1-Ig (20 nM final), diluted in DMEM supplemented with 10% fetal calf serum. After 1 hour incubation, cells were fixed with […] in dPBS containing 10 μg/ml Hoechst 33342 and then washed 3× in 100 μl dPBS. Data was collected and processed using a Cell Insight NXT High Content Imager and associated software.
With `Cc1cccc(C[C@@H]2NC(=O)[C@H](CC(=O)O)NC(=O)[C@H](Cc3ccc(C(=O)O)cc3)NC(=O)[C@H](Cc3ccc(OCC(=O)O)cc3)NC(=O)CSC[C@@H](C(=O)NCCOCCOCC(=O)NCCCCCCCCCCC(=O)O)NC(=O)[C@H](CCCNC(N)=O)NC(=O)[C@H](C(C)C)NC(=O)[C@H](CC3CCCCC3)NC(=O)[C@H](CCN)NC(=O)[C@@H](CC(C)C)NC(=O)[C@H](C)N(C)C(=O)[C@H](C(C)C)NC(=O)[C@H](Cc3ccc(-c4ccccc4)cc3)NC(=O)[C@H](CC(C)C)NC2=O)c1` [Example 2286] ({CH2CO}-Y(Carboxymethyl)[Phe(4-COOH)]D[Phe(3-Me)]L[Bip]V[NMeA][dL][Dab][Cha]V[Cit]C[AEEA][Aun]-OH; thioether N-14) the pIC50 was 7.56.
`Cc1cccc(C[C@@H]2NC(=O)[C@H](CC(=O)O)NC(=O)[C@H](Cc3ccc(C(=O)O)cc3)NC(=O)[C@H](Cc3ccncc3)NC(=O)CSC[C@@H](C(=O)N[C@@H](CCN)C(=O)NCCOCCOCC(=O)NCCCCCCCCCCCCC(=O)O)NC(=O)[C@H](CCC(=O)O)NC(=O)[C@H](C(C)(C)O)NC(=O)[C@H](CC3CCCCC3)NC(=O)[C@H](CCN)NC(=O)[C@@H](CC(C)C)NC(=O)[C@H](C)N(C)C(=O)[C@H](Cc3ccc(C(=O)O)cc3)NC(=O)[C@H](Cc3ccc(-c4ccccc4)cc3)NC(=O)[C@H](Cc3ccc(C(=O)O)cc3)NC2=O)c1` [Example 1104] ({CH2CO}-[4Pal][Phe(4-COOH)]D[Phe(3-Me)][Phe(4-COOH)][Bip][Phe(4-COOH)][NMeA][dL][Dab][Cha][Val(3-OH)]EC[Dab][AEEA]-{NH(CH2)12COOH}; thioether N-14) showed a pIC50 of 6.25.
`COC[C@@H]1NC(=O)CSC[C@@H](C(=O)N[C@@H](CCN)C(=O)NCCCCCCCCCCCCC(=O)O)NC(=O)[C@H](CO)NC(=O)[C@H](C(C)(C)O)NC(=O)[C@H](CC2CCCCC2)NC(=O)[C@H](CCN)NC(=O)[C@@H](CC(C)C)NC(=O)[C@H](C)N(C)C(=O)[C@H](CCC(N)=O)NC(=O)[C@H](Cc2ccc(-c3ccccc3)cc2)NC(=O)[C@H](Cc2ccc(C(=O)O)cc2)NC(=O)[C@H](Cc2cccc(C(F)(F)F)c2)NC(=O)[C@H](CC(=O)O)NC(=O)[C@H](Cc2ccc(OCC(=O)O)cc2)NC1=O` [Example 1136] ({CH2CO}-S(Me)Y(Carboxymethyl)D[Phe(3-CF3)][Phe(4-COOH)][Bip]Q[NMeA][dL][Dab][Cha][Val(3-OH)]SC[Dab]-{NH(CH2)12COOH}; thioether N-14) was tested, and the pIC50 was 7.74.
With `CCC(C)[C@@H]1NC(=O)[C@H](Cc2ccc(-c3ccccc3)cc2)NC(=O)[C@H](C(C)C)NC(=O)[C@H](Cc2c[nH]c3ccccc23)NC(=O)[C@H](CC(=O)O)NC(=O)[C@H](Cc2ccc(OCC(=O)O)cc2)NC(=O)[C@H](C(C)O)NC(=O)CSC[C@@H](C(=O)N[C@@H](CCCN)C(=O)N[C@@H](CCC(=O)NCCCCCCCCCCCC(=O)O)C(=O)O)NC(=O)[C@H](C(C)O)NC(=O)[C@H](C(C)C)NC(=O)[C@H](CC2CCCCC2)NC(=O)[C@H](CCN)NC(=O)[C@@H](CC(C)C)NC(=O)[C@H](C)N(C)C1=O` (stereo partly drawn) [Example 2418] ({CH2CO}-[Thr(3ξ)]Y(Carboxymethyl)DWV[Bip][Ile(3ξ)][NMeA][dL][Dab][Cha]V[Thr(3ξ)]C[Orn][γGlu][12Ado]-OH; thioether N-14) the pIC50 was 7.33.
Compound `CC(C)C[C@@H]1NC(=O)[C@H](Cc2c[nH]c3ccccc23)NC(=O)[C@H](CC(=O)O)NC(=O)[C@H](Cc2ccc(C(=O)O)cc2)NC(=O)[C@H](Cc2ccc(OCC(=O)O)cc2)NC(=O)CSC[C@@H](C(=O)N[C@@H](CCCN)C(=O)NCCOCCOCC(=O)NCCCCCCCCCCC(=O)O)NC(=O)[C@H](CCCC(=O)O)NC(=O)[C@H](C(C)C)NC(=O)[C@H](CC2CCCCC2)NC(=O)[C@H](CCN)NC(=O)[C@@H](CC(C)C)NC(=O)[C@H](C)N(C)C(=O)[C@H](C(C)C)NC(=O)[C@H](Cc2ccc(-c3ccccc3)cc2)NC1=O` [Example 2153] ({CH2CO}-Y(Carboxymethyl)[Phe(4-COOH)]DWL[Bip]V[NMeA][dL][Dab][Cha]V[Aad]C[Orn][AEEA][Aun]-OH; thioether N-14) has a pIC50 of 7.78.
`Cc1cccc(C[C@@H]2NC(=O)[C@H](CC(=O)O)NC(=O)[C@H](Cc3ccc(C(=O)O)cc3)NC(=O)[C@H](Cc3ccc(OCC(=O)O)cc3)NC(=O)CSC[C@@H](C(=O)N[C@H](CC(N)=O)C(=O)NCCCCCCCCCCC(=O)O)NC(=O)[C@H](C(C)O)NC(=O)[C@H](C(C)C)NC(=O)[C@H](CC3CCCCC3)NC(=O)[C@H](CCN)NC(=O)[C@@H](CC(C)C)NC(=O)[C@H](C)N(C)C(=O)[C@H](CCCNC(N)=O)NC(=O)[C@H](Cc3ccc(-c4ccccc4)cc3)NC(=O)[C@H](CC(C)C)NC2=O)c1` (stereo partly drawn) [Example 2327] ({CH2CO}-Y(Carboxymethyl)[Phe(4-COOH)]D[Phe(3-Me)]L[Bip][Cit][NMeA][dL][Dab][Cha]V[Thr(3ξ)]C[dN][Aun]-OH; thioether N-14) was tested, and the pIC50 was 7.89.
`CCC(C)[C@@H]1NC(=O)[C@H](Cc2ccc(-c3ccccc3)cc2)NC(=O)[C@H](C(C)C)NC(=O)[C@H](Cc2cn(C)c3ccccc23)NC(=O)[C@H](CC(=O)O)NC(=O)[C@H](Cc2ccc(OCC(=O)O)cc2)NC(=O)[C@H](C(C)O)NC(=O)CSC[C@@H](C(=O)N[C@@H](CCCN)C(=O)NCCCCCCCCCCC(=O)O)NC(=O)[C@H](C(C)O)NC(=O)[C@H](C(C)C)NC(=O)[C@H](CC2CCCCC2)NC(=O)[C@H](CCN)NC(=O)[C@@H](CC(C)C)NC(=O)[C@H](C)N(C)C1=O` (stereo partly drawn) [Example 2416] ({CH2CO}-[Thr(3ξ)]Y(Carboxymethyl)D[Trp(1-Me)]V[Bip][Ile(3ξ)][NMeA][dL][Dab][Cha]V[Thr(3ξ)]C[Orn][Aun]-OH; thioether N-14) showed a pIC50 of 6.24.
Work on `Cc1cccc(C[C@@H]2NC(=O)[C@H](CC(=O)O)NC(=O)[C@H](Cc3ccc(C(=O)O)cc3)NC(=O)[C@H](Cc3ccc(OCC(=O)O)cc3)NC(=O)CSC[C@@H](C(=O)NCC(=O)N[C@@H](CCC(=O)O)C(=O)NCCCCCCCCCCC(=O)O)NC(=O)[C@H](CO)NC(=O)[C@H](C(C)C)NC(=O)[C@H](CC(C)C)NC(=O)[C@H](CC(N)=O)NC(=O)[C@@H](CC(C)C)NC(=O)[C@H](C)N(C)C(=O)[C@H](C(C)C)NC(=O)[C@H](Cc3ccc(-c4ccccc4)cc3)NC(=O)[C@H](CC(C)C)NC2=O)c1` [Example 1005] ({CH2CO}-Y(Carboxymethyl)[Phe(4-COOH)]D[Phe(3-Me)]L[Bip]V[NMeA][dL]NLVSCGE[Aun]-OH; thioether N-14) yielded a pIC50 of 7.31.

Same assay, conditions: PE-labeled PD-L1-Ig 20 nM final, Jurkat-hPD-1 cells; read-out: Jurkat HPD1 PDL1 IC50
Compound `Cc1cccc(C[C@@H]2NC(=O)[C@H](CC(=O)O)NC(=O)[C@H](Cc3ccc(CN)cc3)NC(=O)[C@H]([C@@H](C)O)NC(=O)CSC[C@@H](C(=O)N[C@@H](CCN)C(=O)NCCCCCCCCC(=O)NCCCCCCCCCCC(=O)O)NC(=O)[C@H](CCCN)NC(=O)[C@H](C(C)C)NC(=O)[C@H](CC3CCCCC3)NC(=O)[C@H](CCN)NC(=O)[C@@H](CC(C)C)NC(=O)[C@H](C)N(C)C(=O)[C@H](Cc3ccc(CN)cc3)NC(=O)[C@H](Cc3ccc(-c4ccccc4)cc3)NC(=O)[C@H](Cc3ccc(CN)cc3)NC2=O)c1` [Example 2671] ({CH2CO}-T[Phe(4-CH2NH2)]D[Phe(3-Me)][Phe(4-CH2NH2)][Bip][Phe(4-CH2NH2)][NMeA][dL][Dab][Cha]V[Orn]C[Dab][NH(CH2)8CO][Aun]-OH; thioether N-14) has a pIC50 of 7.52.
Compound `CC(C)C[C@@H]1NC(=O)[C@H](Cc2c[nH]c3ccccc23)NC(=O)[C@H](CC(=O)O)NC(=O)[C@H](Cc2ccc(C(=O)O)cc2)NC(=O)[C@H](Cc2ccc(OCC(=O)O)cc2)NC(=O)CSC[C@@H](C(=O)NCCOCCOCC(=O)NCCCCCCCCCCC(=O)O)NC(=O)[C@H](Cc2cnc[nH]2)NC(=O)[C@H](C(C)O)NC(=O)[C@H](CC2CCCCC2)NC(=O)[C@H](CCN)NC(=O)[C@@H](CC(C)C)NC(=O)[C@H](C)N(C)C(=O)[C@H](C(C)C)NC(=O)[C@H](Cc2ccc(-c3ccccc3)cc2)NC1=O` (stereo partly drawn) [Example 2435] ({CH2CO}-Y(Carboxymethyl)[Phe(4-COOH)]DWL[Bip]V[NMeA][dL][Dab][Cha][Thr(3ξ)]HC[AEEA][Aun]-OH; thioether N-14) has a pIC50 of 7.59.
For `CCC(C)[C@@H]1NC(=O)[C@H](Cc2ccc(-c3ccccc3)cc2)NC(=O)[C@H](C(C)C)NC(=O)[C@H](Cc2c[nH]c3ccccc23)NC(=O)[C@H](CC(=O)O)NC(=O)[C@H](Cc2ccc(C(=O)O)cc2)NC(=O)[C@H](Cc2ccc(OCC(=O)O)cc2)NC(=O)CSC[C@@H](C(=O)N[C@@H](CCN)C(=O)NCCOCCOCC(=O)NCCCCCCCCCCC(=O)O)NC(=O)[C@H](CCCNC(N)=O)NC(=O)[C@H](C(C)(C)O)NC(=O)[C@H](CC2CCCCC2)NC(=O)[C@H](Cc2cnc[nH]2)NC(=O)[C@@H](CC(C)C)NC(=O)[C@H](C)N(C)C1=O` (stereo partly drawn) [Example 2523] ({CH2CO}-Y(Carboxymethyl)[Phe(4-COOH)]DWV[Bip][Ile(3ξ)][NMeA][dL]H[Cha][Val(3-OH)][Cit]C[Dab][AEEA][Aun]-OH; thioether N-14), the pIC50 was 8.15.
For `Cc1cccc(C[C@@H]2NC(=O)[C@H](CC(=O)O)NC(=O)[C@H](Cc3ccc(C(=O)O)cc3)NC(=O)[C@H](C)NC(=O)CSC[C@@H](C(=O)N[C@@H](CCN)C(=O)NCCCCCCCCCCC(=O)O)NC(=O)[C@H](C(C)O)NC(=O)[C@H](C(C)C)NC(=O)[C@H](CC3CCCCC3)NC(=O)[C@H](CCN)NC(=O)[C@@H](CC(C)C)NC(=O)[C@H](C)N(C)C(=O)[C@H](Cc3ccc(C(=O)O)cc3)NC(=O)[C@H](Cc3ccc(-c4ccccc4)cc3)NC(=O)[C@H](Cc3ccc(C(F)(F)F)cc3)NC2=O)c1` (stereo partly drawn) [Example 2582] ({CH2CO}-A[Phe(4-COOH)]D[Phe(3-Me)][Phe(4-CF3)][Bip][Phe(4-COOH)][NMeA][dL][Dab][Cha]V[Thr(3ξ)]C[Dab][Aun]-OH; thioether N-14), the pIC50 was 7.67.
